From patent US20080064629A1, “Amphiregulin as a Protective Agent in Acute Hepatic Injury” (priority 2004, published 2008)

Assays:
Format in all cases: cell-based
[1] = system: AR gene expression in rat hepatocytes; test: AR gene expression in cultured rat hepatocytes (real time PCR); settings: IL-1β 2 ng/ml; PGE2 10 μM; forskolin, hydrogen peroxide, menadione data not shown
Experimental: (§1) Hepatocytes were isolated from male Wistar rats (150 g) and C57/BL6 mice (20 g) by perfusion with collagenase (Gibco-BRL, Paisley, UK) as described elsewhere [(18), (20)]. Cells (5×10^5 cells per well) were plated onto 6-well plates coated with collagen (type I collagen, Collaborative Biomedical, Bedford, Mass., USA). Cultures were maintained in MEM medium supplemented with 10% fetal calf serum (FCS), non-essential amino acids, glutamine 2 mM and antibiotics (all supplied by Gibco-BRL). After 2 h of incubation, the medium was removed and cells were again cultured in the same medium with 5% FCS. Where applicable, hepatocytes were treated with IL-1β or TNFα from Roche (Mannheim, Germany), HGF or forskolin from Calbiochem (San Diego, Calif., USA), IL6 from RD Systems (Wiesbaden-Nordenstadt, Germany), or PGE2 from Alexis QBiogene (Carlsbad, Calif., USA).
Total RNA was extracted using TRI reagent (Sigma). […] of RNA were treated with DNase I (Gibco-BRL) before reverse transcription, for which M-MLV enzyme was used (Gibco-BRL) in the presence of RNase OUT (Gibco-BRL). For each PCR reaction 1/10 of each preparation of cDNA was used. PCR products were subjected to electrophoresis in 2% agarose gels, followed by staining with ethidium bromide and quantification using Molecular Analyst software (Bio-Rad, Hercules, Calif., USA). Data were normalized with respect to β-actin gene expression levels. […] All primers were designed to distinguish between the amplification of genomic DNA and cDNA, and all products were sequenced to confirm specificity. The primers used are described below in Table I: […]
Real time PCR was performed using an iCycler (BioRad) and iQ SYBR Green Supermix (Bio-Rad). In order to monitor the specificity of final PCR products, the latter were analysed by fusion curves and electrophoresis. The amount of each transcript was expressed as n-fold the difference versus expression of the reference gene (β-actin)(2^ΔCt, where ΔCt represents the difference in threshold cycle between target genes and control gene).

[2] = system: rat hepatocytes; test: DNA synthesis ([3H]thymidine incorporation) in cultured rat hepatocytes; settings: for effect on DNA synthesis stimulated by AR (in words): AR 100 nM with PD153035 1 μM, LY294002 20 μM, SB202190 25 μM, TGFβ 8 ng/ml; for reduction of the effects of AR on DNA synthesis: AR 100 nM, PD98059 10 μM, SP600125 20 μM
Experimental: For DNA synthesis, rat hepatocytes were plated to a density of 3×10^4 cells/well in 96-well plates coated with collagen in MEM medium supplemented with 10% FCS. Five hours after plating, the medium was changed and cells were maintained in absence of serum for another 20 hours. DNA synthesis was assayed after 30 h of treatment with AR. A pulse of [^3H]thymidine was administered (1 μCi/well)(Amersham Biosciences, Piscataway, N.J., USA) 22 h after the addition of AR. Cells were harvested, and the incorporation of thymidine was determined with a scintillation counter. Evaluations were made of the effect of AR on DNA synthesis in the presence of MEK1 inhibitor, PD98059, PI-3K inhibitor, LY294002, p38 MAPK inhibitor, SB202190, JNK inhibitor, SP600125, and of the EGF-R tyrosine kinase activity inhibitor, PD153035—all supplied by Calbiochem.

[3] = system: mouse hepatocytes in primary culture; test: Apoptosis induced by actinomycin D and Jo2 antibody in mouse hepatocytes in primary culture; settings: AR 20 nM; PD153035 1 μM, PD98059 10 μM, LY-294002 20 μM; actinomycin D and Jo2
Description: In order to determine whether the in vivo antiapoptotic effects of AR could be mediated by direct action of AR on liver parenchymal cells, the inventors used mouse hepatocytes in primary culture. It has been reported that hepatocytes exposed to Jo-2 antibodies undergo apoptosis effectively in presence of actinomycin D [(5), (6), (33) Ni, R., Tomita, Y., Matsuda, K., Ichiara, A., Ishimura, K., Ogasawara, J., Nagata, S. 1994. Fas-mediated apoptosis in primary cultured mouse hepatocytes. Exp. Cell Res. 215: 332-337]. Hepatocytes were pretreated with different concentrations of AR during […] before addition of actinomycin D and Jo2 antibody. Measurements of apoptosis and related molecular events, were made 18 h later. […] Likewise, they found antiapoptotic protein Bcl-xL to be induced by treatment with AR in mouse hepatocytes treated with Jo2 (FIG. 4B). In order to identify the AR antiapoptotic signaling mechanisms, PI-3K/Akt and ERK1/2 pathways were studied, as they are general mediators of cell survival [(4), (6)]. […] A key signaling molecule implicated in protection against liver damage induced by Fas is STAT3 [(34) Shen, Y., Devgan, G., Darnell, J. E., Bromberg, J. F. 2001. Constitutively activated Stat3 protects fibroblasts from serum withdrawal and UV-induced apoptosis and antagonizes the proapoptotic effects of activated Statl. Proc. Natl. Acad. Sci. USA. 98: 1543-1548. (35) Haga, S., Terui, K., Zhang, H. Q., Enosawa, S., Ogawa, W., Inoue, H., Okuyama, T., Takeda, K., Akira, S., Ogino, T., et al. 2003. Stat3 protects against Fas-induced liver injury by redox-dependent and -independent mechanisms. J. Clin. Invest. 112: 989-998].
as §1
Apoptosis was induced in cultured mouse hepatocytes by treatment with 0.5 μg/ml of Jo2 antibody and 0.05 μg/ml of actinomycin D as described elsewhere (5). Where applicable, the hepatocytes were treated with AR 6 h before the addition of Jo2 antibody and actinomycin D. Apoptosis was estimated by determining soluble histone-DNA complexes using the Cell Death Detection Assay (Roche). ELISA tests for determining cell death were carried out following the manufacturer's instructions. The specific enrichment of mono- and oligonucleosomes released in the cytoplasm (enrichment factor, EF) was calculated as the ratio between the absorbance values of the samples corresponding to treated cells and control cells. […]
Caspase-3 activity in mouse hepatocytes and liver tissue lysates was assessed using the Caspase-3/CPP32 colorimetric assay kit (BioVision, Palo Alto, Calif., USA). […]

Molecule	AR gene expression [1]	effect on DNA synthesis stimulated by AR (in words) [2]	also measured
CC1=CC(=O)c2ccccc2C1=O [menadione]	no effect		
IL-1β: cytokine implicated in liver inflammatory and regenerative processes (Roche)	stimulate AR gene expression		
Oc1ccc(-c2nc(-c3ccncc3)c(-c3ccc(F)cc3)[nH]2)cc1 [SB202190]		no significant effect	
Oc1c2ccccc2c2c3c(cccc13)N=N2 [SP600125]			reduction of the effects of AR on DNA synthesis [2]: 70%
COc1cccc(-c2cc(=O)c3ccccc3o2)c1N [PD98059, reference compound]			effect of inhibitor on the protection against apoptosis afforded by AR [3]: did not interfere; reduction of the effects of AR on DNA synthesis [2]: 70%
CCCCC[C@H](O)/C=C/[C@H]1[C@H](O)CC(=O)[C@@H]1C/C=C\CCCC(=O)O [PGE2, prostaglandin E2]	rapid induction		
COc1cc2ncnc(Nc3cccc(Br)c3)c2cc1OC [PD153035, reference compound]		completely prevents	effect of inhibitor on the protection against apoptosis afforded by AR [3]: protection afforded by AR was lost
OO [hydrogen peroxide]	no effect		
transforming growth factor β [TGFβ]		abrogated	
